Key:
GluN2A = target: T1, GluN2A (Homo sapiens, UniProt Q12879); assay: FLIPR functional assay, HEK 293 cells (agonist/PAM/antagonist); format: cell-based; conditions: top concentration 100 μM, read-out: IC50, functional antagonist receptor assay
T1 construct: host or cells: HEK 293 (stably expressing)
Method: Functional assays of all GABAA, NMDA (GluN2A-GluN2D) and AMPA (GluA2) receptor subunits were performed by SB Drug Discovery as a part of their CNS discovery panel using FLIPR technology. Briefly, receptor-expressing HEK 293 cell lines were incubated in a red membrane potential dye in HEPES:HBSS pH 7.4 buffer and the fluorescence (λex: 488, λex: 510-570) was monitored over time as the test compounds and/or reference compounds were added to the solution. In agonist assay, only test compounds were added. In positive allosteric modulator assay, cells were preincubated with test compounds and then low concentration (approximately EC20) of an appropriate agonist was added. In antagonist assay, cells were preincubated with test compounds and then high concentration (approximately EC80) of an appropriate agonist was added. For GABAA assays, GABA was used as the agonist, picrotoxin was used as the reference antagonist and allopregnanolone was used as the reference positive allosteric modulator (PAM). For NMDA assays, a mixture of glutamate, glycine and CaCl2 was used as the agonist, MK801 was the reference antagonist and pregnenolone sulfate or GNE 9278 were used as reference PAMs. For AMPA assays, glutamate was used as the agonist, CNQX was the reference antagonist and cyclothiazide was used as the reference PAM. All compounds were tested at 7 concentration points in triplicate and EC50/IC50 was determined where applicable. Functional GABAB assay was performed by Eurofins Discovery (Cerep) using Ca^2+-dependent fluorimetry in RBL cells expressing human GABAB (B1/B2) receptor. All compounds were tested at a single concentration of 100 uM in triplicate.
All receptor assays were performed exactly as described in Example 1. Functional assays of all GABAA, NMDA (GluN2A-GluN2D) and AMPA (GluA2) receptor subunits were performed by SB Drug Discovery as a part of their CNS discovery panel using FLIPR technology. All compounds were tested at 7 concentrations in triplicate and EC50/IC50 was determined where applicable. Functional GABAB assay was performed by Eurofins Discovery (Cerep) using Ca^2+-dependent fluorimetry in RBL cells expressing human GABAB (B1/B2) receptor. All compounds were tested at a single concentration of 100 uM in triplicate. Nonspecific AMPA, kainate and NMDA binding assays were performed by Eurofins Discovery (Cerep) using rat cerebral cortex membranes and radiolabeled [^3H]AMPA, [^3H]kainic acid and [^3H]CGP 39653, respectively. All compounds were tested at a single concentration of 100 uM in triplicate. mGluR1, mGluR2, mGluR5 and GABAB binding assays were performed by Eurofins Discovery. All compounds were tested at a single concentration of 100 uM in triplicate.

Line 41 mice = assay: Transgenic Aβ model of AD, behavior tests; format: in vivo; conditions: 10 mg/kg/d IP for 6 weeks
Method: Cerebral Aβ accumulation is a core feature of AD. Since memantine, a glutamate receptor subtype antagonist is an approved treatment for people with AD, we tested whether our false glutamatergic neurotransmitter might be therapeutic in a transgenic model of AD. Four month old Line 41 male mice were treated with S-2MeGlu at 10 mg/kg/d IP for 6 weeks with behavior tested using activity chamber, Y maze, novel object and novel place recognition, Morris water maze, and fear conditioning.

MPTP model of PD = assay: MPTP model of PD, fine motor kinematic score; format: in vivo, mouse; conditions: 50 mg/kg/d IP, days −5 to 14
Method: Five groups of mice were treated with 40 mg/kg/d MPTP IP on days 1 and 2 and two concentrations of two test agents IP from days −5 to day 14 (FIG. 22). One group received vehicle, two groups received 5 or 50 mg/kg/d S-2MeGlu, and two groups received 5 or 50 mg/kg/d R-4APA. […] The high-precision fine motor kinematic protocol quantifies over 100 indices of gait and balance and integrates them into an overall kinematic score; higher score indicates greater impairment. […] Mice were sacrificed on day 15 and striatal dopamine as well as its major metabolites were quantified by HPLC with electrochemical detection.

T1 sequence (Q12879 23-1464, other chains not shown): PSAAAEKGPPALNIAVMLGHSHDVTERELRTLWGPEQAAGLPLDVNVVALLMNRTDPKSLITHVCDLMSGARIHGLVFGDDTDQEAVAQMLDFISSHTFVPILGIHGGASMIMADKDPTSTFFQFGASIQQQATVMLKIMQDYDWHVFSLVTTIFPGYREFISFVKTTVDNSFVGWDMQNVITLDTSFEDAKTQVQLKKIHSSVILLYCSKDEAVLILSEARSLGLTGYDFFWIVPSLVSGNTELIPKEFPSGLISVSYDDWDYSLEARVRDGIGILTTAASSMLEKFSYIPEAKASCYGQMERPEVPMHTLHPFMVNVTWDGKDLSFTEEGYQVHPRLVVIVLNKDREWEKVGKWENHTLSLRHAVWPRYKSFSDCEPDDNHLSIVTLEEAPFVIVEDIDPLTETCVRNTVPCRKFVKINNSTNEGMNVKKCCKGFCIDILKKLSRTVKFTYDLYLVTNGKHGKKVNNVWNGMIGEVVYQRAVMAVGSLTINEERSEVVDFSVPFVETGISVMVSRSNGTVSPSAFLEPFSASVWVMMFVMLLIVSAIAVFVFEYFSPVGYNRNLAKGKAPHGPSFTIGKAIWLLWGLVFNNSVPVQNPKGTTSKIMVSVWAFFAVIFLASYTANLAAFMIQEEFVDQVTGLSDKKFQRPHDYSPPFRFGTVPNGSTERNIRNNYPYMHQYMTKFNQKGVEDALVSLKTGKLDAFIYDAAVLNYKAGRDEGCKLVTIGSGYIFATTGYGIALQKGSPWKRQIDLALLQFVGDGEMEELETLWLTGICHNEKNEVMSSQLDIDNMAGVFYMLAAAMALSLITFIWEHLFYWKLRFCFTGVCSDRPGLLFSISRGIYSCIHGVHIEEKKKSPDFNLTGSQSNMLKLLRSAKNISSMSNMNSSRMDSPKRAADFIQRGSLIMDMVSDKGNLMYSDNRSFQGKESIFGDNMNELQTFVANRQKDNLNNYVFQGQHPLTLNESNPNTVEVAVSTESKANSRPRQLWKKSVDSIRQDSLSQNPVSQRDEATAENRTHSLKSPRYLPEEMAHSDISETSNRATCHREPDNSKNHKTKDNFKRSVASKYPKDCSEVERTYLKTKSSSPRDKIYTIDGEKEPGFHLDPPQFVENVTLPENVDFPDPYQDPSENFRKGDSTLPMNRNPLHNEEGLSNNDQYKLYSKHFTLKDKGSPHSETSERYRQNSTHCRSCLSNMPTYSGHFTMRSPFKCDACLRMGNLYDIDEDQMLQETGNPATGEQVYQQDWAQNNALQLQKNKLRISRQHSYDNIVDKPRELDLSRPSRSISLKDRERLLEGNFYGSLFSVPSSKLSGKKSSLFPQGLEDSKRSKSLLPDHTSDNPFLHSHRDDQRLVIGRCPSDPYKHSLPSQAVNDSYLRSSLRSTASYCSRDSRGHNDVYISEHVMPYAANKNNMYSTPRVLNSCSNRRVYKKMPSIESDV

Structure (SMILES)	IC50 (GluN2A)	Aβ accumulation by immunohistochemistry (Line 41 mice)	behavior tests (activity chamber, Y maze, novel object and place recognition, Morris water maze, fear conditioning) (Line 41 mice)	body weights or deaths (Line 41 mice)	rescue of motor deficit from MPTP (overall kinematic score) (MPTP model of PD)
C[C@@](N)(CCC(=O)O)C(=O)O [(R)-2MeGlu, (R)-2-methylglutamic acid]	69 µM				
C[C@](N)(CCC(=O)O)C(=O)O [(S)-2MeGlu, (S)-2-methylglutamic acid]		no change in Aβ accumulation	only rescued performance in the Y maze	no difference in body weights or any deaths	significantly rescued the motor deficit from MPTP

— US12589087B2, “Enantiomer selective action on neurotransmission” (The Board of Trustees of the Leland Stanford Junior …, priority 2021, dated 2026)
